PMC6199279, “Design of Peptoid-peptide Macrocycles to Inhibit the β-catenin TCF Interaction in Prostate Cancer” (Nature Communications, 2018)
Numbered stars: 1 amine (or outer) side, 2 acyl side, 3 side chain; on linkers, the order of the positions; unused ones are H or OH. Square brackets hold non-standard residues; d marks the D form. Peptide text beside a SMILES is read from it. N(2-(2-PhOPh)Et)Gly = O=C(O)CNCCc1ccccc1Oc1ccccc1; Gly(N-3,5-(OMe)2-Ph) = COc1cc(NCC(=O)O)cc(OC)c1; X1 = COc1ccc([C@H](C)N(CC(=O)[*:2])[*:1])cc1; N((CH2)3OiPr)Gly = CC(C)OCCCNCC(=O)O

Key:
[1] = tested on: TOP-Flash Wnt luciferase reporter; experiment: TOP-Flash Wnt luciferase reporter assay in LNCaP-abl cells; type: cell-based; settings: for Effect of control Wnt inhibitors on the Wnt luciferase reporter: dose response, commercially available inhibitors (Supplementary Fig. 5)
Description: (§1) Using a TOP-Flash Wnt luciferase reporter, we tested the 12 oligomers identified from in silico modeling for inhibitory activity (Fig. 2b). […] We also employed a 3 × -Androgen Response Element (ARE) luciferase reporter to measure the effect on AR activity. […] As additional controls, we obtained previously developed, commercially available Wnt inhibitors and tested them in the Wnt luciferase assay (Supplementary Fig. 5).
(§2) We next characterized the dose response curves for compound 13 in the Wnt and AR luciferase reporters. The linear version of 13 (linear 13: NH2-|N-mpp, N-dmp, N-ipp, N-Smpe, N-Smpe, D-Ala|-OH) was used as a control compound. […] To test direct binding, we pre-formed dynamic light scattering (DLS) with β-catenin in the presence of vehicle, compound 13, and α-cyclodextrin. […] HEK293 cells were transiently transfected with a plasmid expressing full length, myc-tagged TCF4. After 48 h treatment with either vehicle (DMSO) or 10 µM 13, cells were lysed and myc-TCF4 protein was immunoprecipitated.
LNCaP-abl and LNCaP-95 cells were cultured in indicator free RPMI 1640 media (Life) supplemented with 10% charcoal stripped FBS, 1% pennicillin/streptomycin, and 1% L-Glutamine. HEK-293 Cells were cultured in DMEM media (Life) supplemented with 10%FBS and 1% pennicillin/streptomycin. A549 and U2OS cells were cultured in RPMI 1640 media (Life) and McCoy’s 5 A modified media (Life), respectively, both supplemented with 10%FBS and 1% pennicillin/streptomycin. LNCaP-abl, and LNCaP-95 cell lines were generous gifts from Z. Culig (Innsbruck Medical University, Austria) and J. Isaacs (Johns Hopkins University, Baltimore, MD), respectively. Cell lines were authenticated by STR profiling (Genetica Cell Line Testing; Burlington, NC). A549 and U2OS were purchased from ATCC (product numbers CCL-185 and HTB-96). Cell lines were routinely screened for mycoplasma. Luciferase assays were conducted using stably transfected TOP-flash and 3xARE LNCaP-abl cell lines. For the Wnt pathway, TOP-Flash LNCaP-abl cells were treated with 1 nM siAPC (a 1:1:1 mix of Ambion Silencer Silect siAPC RNA, ID#s s1433, s1434, s1435) for 24 h and seeded into 384-well plates at 5000 cells/well, followed by 24 h of treatment with compound. For the AR-pathway, 3xARE LNCaP-abl cells were seeded into 384-well plates at 5000 cells per well, treated for 48 h with compound, with the addition of R1881 for the final 8 h. Both were measured using the ONE-Glo detection kit (Promega) and data is standardized to CellTiter-Fluor (Promega) viability readings to account for potential variations in well to well cell number. Control Wnt inhibitors were purchased from Sigma with the exception of PRI-724 which was purchased from Selleckchem. Co-immunoprecipitation was carried out using HEK293 cells transfected with either myc-TCF (addgene #32738) or myc-TCF dominant negative (addgene #32739) followed by 48 h of treatment with compound. Cells were lysed using Triton lysis buffer and 1 mg total protein was incubated overnight at 4 C with 40 µl anti-cMyc magnetic beads (Thermo). Total protein concentration in cell lysates were determined using Pierce Rapid Gold BCA Protein Assay Kit (Thermo). The beads were washed 3× with lysis buffer then boiled in 2X sample loading dye. SDS-PAGE and western blotting were performed using anti-Myc (CST 2276) and anti-β-catenin (CST 8480). Both antibodies were diluted in blocking buffer 1:1000 and incubated overnight at 4 C with the membrane. […]

[2] = set-up: method as in PMID 24019458; settings: mouse xenograft experiments, direct tumor injection required; cited from earlier work
[3] = tested on: Wnt signaling in zebrafish embryos; settings: 50 µl of 30 µM compound added at ~5.5 hpf, BIO added about 30 min later; eight fish per group
Experimental: To evaluate the efficacy of 13 in vivo, we utilized a Danio rerio (zebrafish) model. […] To test this, BIO was added to zebrafish embryos at 6 hpf with and without 13 as described in Fig. 6a.
The zebrafish phenotypic assay was conducted using wild-type zebrafish embryos seeded into a 96-well round bottom plate at 4 hpf in 50 µl of Fish Water (60 mg/l sea salt, Instant Ocean, Blacksburg, VA, USA) supplemented with 1 mg per L Methylene Blue (Sigma-Aldrich). The embryos were not dechorionated. At 50% epiboly, roughly 5.5 hpf, 50 µl of 30 µM 13 or Linear 13 was added. About 30 min later at shield stage, 50 µl of 6 nM (3×) BIO was added. The embryos were then visualized for the presence of eyes and imaged at 30 hpf. Zebrafish embryos were randomly assigned to non-blinded treatment groups, none were excluded. Sample size was determined with a power calculation to achieve statistical significance (alpha = 0.05, beta = 0.2) if only 60% of the fish had developed eyes.

[4] = tested on: AR luciferase reporter (3xARE); experiment: 3x-Androgen Response Element (ARE) luciferase reporter assay in LNCaP-abl cells; type: cell-based; settings: 3xARE LNCaP-abl cells, 48 h compound, androgen-activated; read-out: IC50 for inhibition of the AR luciferase reporter
Description: as §1, §2
LNCaP-abl and LNCaP-95 cells were cultured in indicator free RPMI 1640 media (Life) supplemented with 10% charcoal stripped FBS, 1% pennicillin/streptomycin, and 1% L-Glutamine. HEK-293 Cells were cultured in DMEM media (Life) supplemented with 10%FBS and 1% pennicillin/streptomycin. A549 and U2OS cells were cultured in RPMI 1640 media (Life) and McCoy’s 5 A modified media (Life), respectively, both supplemented with 10%FBS and 1% pennicillin/streptomycin. LNCaP-abl, and LNCaP-95 cell lines were generous gifts from Z. Culig (Innsbruck Medical University, Austria) and J. Isaacs (Johns Hopkins University, Baltimore, MD), respectively. Cell lines were authenticated by STR profiling (Genetica Cell Line Testing; Burlington, NC). […] Both were measured using the ONE-Glo detection kit (Promega) and data is standardized to CellTiter-Fluor (Promega) viability readings to account for potential variations in well to well cell number. […] Total protein concentration in cell lysates were determined using Pierce Rapid Gold BCA Protein Assay Kit (Thermo). […]

β-catenin = target: T1, β-catenin (Homo sapiens, UniProt P35222); experiment: Dynamic light scattering of β-catenin; type: binding; settings: 10 µM compound vs 1% DMSO vehicle
T1 construct: His6-β-catenin armadillo domain, AA134-668; made in house; host or cells: E. coli BL21 DL3 (NEB)
T1 sequence (P35222 134-668): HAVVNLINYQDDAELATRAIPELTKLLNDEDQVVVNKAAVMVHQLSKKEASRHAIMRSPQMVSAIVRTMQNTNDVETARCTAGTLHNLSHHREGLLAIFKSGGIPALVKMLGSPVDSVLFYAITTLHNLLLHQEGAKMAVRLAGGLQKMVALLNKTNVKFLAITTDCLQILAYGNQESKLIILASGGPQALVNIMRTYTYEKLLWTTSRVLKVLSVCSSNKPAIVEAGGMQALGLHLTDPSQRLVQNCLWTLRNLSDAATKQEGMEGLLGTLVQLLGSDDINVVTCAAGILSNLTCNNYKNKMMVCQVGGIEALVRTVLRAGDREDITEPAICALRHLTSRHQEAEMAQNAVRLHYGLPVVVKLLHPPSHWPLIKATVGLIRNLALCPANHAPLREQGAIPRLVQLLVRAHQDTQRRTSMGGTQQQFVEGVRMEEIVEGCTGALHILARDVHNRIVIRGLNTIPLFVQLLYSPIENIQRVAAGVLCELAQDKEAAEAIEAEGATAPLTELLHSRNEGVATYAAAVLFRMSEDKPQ
Experimental: as §2

## C[C@H]1[C@H]2N(C(=O)CN(C)N2C(=O)NCc2ccccc2)[C@@H](Cc2ccc(OP(=O)(O)O)cc2)C(=O)N1Cc1cccc2cccnc12 [PRI-724, reference compound]
[1]
  Effect of control Wnt inhibitors on the Wnt luciferase reporter: did inhibit the luciferase reporter

## CCc1ccc(-c2nc(CSCC(=O)NCCc3ccccc3)c(C)o2)cc1 [iCRT3, reference compound]
[1]
  Effect of control Wnt inhibitors on the Wnt luciferase reporter: did inhibit the luciferase reporter
[2]
  Systemic stability: not systemically stable

## COc1ccc([C@H](C)N(CC(=O)N[C@H](C)C(=O)O)C(=O)CN(C(=O)CN(CCCOC(C)C)C(=O)CN(C(=O)CNCCc2ccccc2Oc2ccccc2)c2cc(OC)cc(OC)c2)[C@@H](C)c2ccc(OC)cc2)cc1 [linear 13, NH2-|N-mpp, N-dmp, N-ipp, N-Smpe, N-Smpe, D-Ala|-OH] (H-[N(2-(2-PhOPh)Et)Gly][Gly(N-3,5-(OMe)2-Ph)][N((CH2)3OiPr)Gly][X1][X1][dA]-OH)
[1]; TOP-Flash LNCaP-abl cells, siAPC knockdown, 24 h compound, ± SD of three replicates, read-out: IC50 for Wnt luciferase inhibition
  IC50: 3.27 µM
[3]
  Fish that developed eyes, BIO plus compound: 6/8
[4]
  IC50: 7.63 µM

## OC[C@H]1O[C@@H]2O[C@H]3[C@H](O)[C@@H](O)[C@@H](O[C@H]4[C@H](O)[C@@H](O)[C@@H](O[C@H]5[C@H](O)[C@@H](O)[C@@H](O[C@H]6[C@H](O)[C@@H](O)[C@@H](O[C@H]7[C@H](O)[C@@H](O)[C@@H](O[C@H]1[C@H](O)[C@H]2O)O[C@@H]7CO)O[C@@H]6CO)O[C@@H]5CO)O[C@@H]4CO)O[C@@H]3CO [α-cyclodextrin, reference compound]
β-catenin
  Shift in measured hydrodynamic radius of β-catenin (DLS): did not cause the same shift
